Assay: Stability of DS in aqueous solution
Type: physicochemical
Conditions: pH range of 4 to 9; rapid degradation and discoloration
Protocol: The goal of this study was to develop an isotonic stable formulation with the psilocin benzoate Drug Substance (DS) concentration ranging from 0.5 to 3.0 mg/mL (mg free base psilocin) as a bulk sterile solution, having a pH in the range of 4 to 9 in a single use glass vial suitable for IV injection. […] This led to the development of a formulation of psilocin benzoate containing antioxidants, buffers, pH adjustment.

CN(C)CCc1c[nH]c2cccc(O)c12.O=C(O)c1ccccc1 [DS, psilocin benzoate]
Stability in aqueous solution: short stability in aqueous solution
